In patent US20060229364A1, “Antiviral compositions and methods of use” (3M Innovative Properties Company, priority 2005, published 2006):

Tested on: Type 1 herpes virus
Assay: Another mouse study with neat ester (Example 4), treatment from 24 hours post-virus inoculum
Format: in vivo, mice
Conditions: neat composition applied 24 hours post-virus inoculum, 3 times daily for 5 days
Excerpt: Each lesion was assigned a score ranging from 0 (normal skin) to 4 (maximal lesion intensity) defined as “Lesion score”, and two measurements, a vertical length and a horizontal length, were taken of each lesion daily from days 1 through 10. These measurements were multiplied together and the “square area” recorded, defined as “Lesion Size”. The lesion scoring was done by technicians who are unaware of which group of animals they are examining in order to eliminate bias. The occurrence of new, satellite, lesions (e.g., another lesion located anywhere other than the site of the intial lesion) were also noted during this 10-day period. The mean of the lesions score and the lesions size was calculated based on the average of the measurements taken on the eight mice.
Another mouse study was performed using propylene glycol monolaurate (Capmul PG-12) in a neat composition. The ester was applied 24 hours post-virus inoculum 3 times daily for 5 days. […] The mean day 7 lesion size was 3.1 mm2 compared to 64.4 mm2 for petrolatum vehicle control. The day 7 mean lesion score was 0.2 compared to 1.5 for a control sample containing petrolatum without an antimicrobial.

propylene glycol monolaurate
day 7 mean lesion score: 0.2 | mean day 7 lesion size: 3.1 mm2 | reduction in lesion score and size compared to a placebo ointment (in words): statistically significant reduction
